In patent publication US4496568A, “Antiinflammatory thieno [2,3-c]pyridine derivatives” (PACOR, priority 1977, dated 1985):

Key:
Format in all cases: in vivo
[1] = system: localized carrageenin-induced edema; test: Localized carrageenin-induced edema (anti-inflammatory activity); conditions: rats, 100 mg/kg orally 1 hour before, at, and 1 and 2.5 hours after carrageenin, vs reference group
Experimental: (§1) The pharmacological investigation concerned the anti-inflammatory activity of the compounds of this invention. This activity was investigated according to 2 methods:
(a) Method of localized carrageenin-induced edema
An 1% (0.1 ml) carrageenin solution is injected in the metatarsal flexor muscles of the right hind limb of rats at time 0. The animals of the treated group are additionally administered orally 100 mg/kg body weight of the test derivative, respectively 1 hour prior to injection of the phlogogenic agent, simultaneously with said injection, and then 1 and 2.5 hours thereafter. The determinations effected with a ROCH micrometer at times 0, 1 hour 2 hrs, 3 hrs and 5 hrs after carrageenin administration provide a measure, as a function of time, of the percent anti-inflammatoryactivity, with respect to the reference group.

[2] = system: ovalbumin-induced systemic edema; test: Ovalbumin-induced systemic edema (anti-inflammatory activity); conditions: rats, 100 mg/kg orally 1 hour before and simultaneously with ovalbumin, vs reference group
Experimental: as §1
(b) Method of the ovalbumin-induced systemic edema
A simultaneous intraperitoneal injection of 1 ml ovalbumin and 0,5 ml of 1% aqueous Evans blue solution is effected in rats. On the other hand, the animals of the treated group are orally administered 100 mg/kg body weight of the test derivative, 1 hour prior to ovalbumin administration and simultaneously therewith. The intensity of the phenomenon thus induced is rated according to a scale from 1 to 5, according to the progress of the inflammatory syndrome. Thus are determined, as a function of time, the mean intensity of the edema and the percent decrease of the edema reaction with respect to the reference group.

mice = test: Acute intravenous toxicity LD50

Oc1cncc2sccc12 [Derivative No. 2, 4-hydroxy-thieno[2,3-c]pyridine]
Percent anti-inflammatory activity after 1 hr [1]: 40%
Percent anti-inflammatory activity after 2 hrs [1]: 45%
Percent anti-inflammatory activity after 3 hrs [1]: 49%
Percent anti-inflammatory activity after 5 hrs [1]: 49%
Percent anti-inflammatory activity after 2 hrs [2]: 49%
Percent anti-inflammatory activity after 3 hrs [2]: 58%

Cc1ncc(O)c2ccsc12 [Derivative No. 3, 4-hydroxy-7-methyl-thieno[2,3-c]pyridine]
Percent anti-inflammatory activity after 1 hr [1]: 42%
Percent anti-inflammatory activity after 2 hrs [1]: 48%
Percent anti-inflammatory activity after 3 hrs [1]: 52%
Percent anti-inflammatory activity after 5 hrs [1]: 51%
Percent anti-inflammatory activity after 2 hrs [2]: 53%
Percent anti-inflammatory activity after 3 hrs [2]: 61%

Oc1cncc2ccsc12 [Derivative No. 1, 7-hydroxy-thieno[3,2-c]pyridine]
LD50 (mice): 131 mg
Percent anti-inflammatory activity after 1 hr [1]: 43%
Percent anti-inflammatory activity after 2 hrs [1]: 46%
Percent anti-inflammatory activity after 3 hrs [1]: 48%
Percent anti-inflammatory activity after 5 hrs [1]: 49%
Percent anti-inflammatory activity after 2 hrs [2]: 44%
Percent anti-inflammatory activity after 3 hrs [2]: 50%

Cc1cc2c(O)cncc2s1 [Derivative No. 4, 4-hydroxy-2-methyl-thieno[2,3-c]pyridine]
Percent anti-inflammatory activity after 1 hr [1]: 45%
Percent anti-inflammatory activity after 2 hrs [1]: 49%
Percent anti-inflammatory activity after 3 hrs [1]: 50%
Percent anti-inflammatory activity after 5 hrs [1]: 52%
Percent anti-inflammatory activity after 2 hrs [2]: 48%
Percent anti-inflammatory activity after 3 hrs [2]: 60%
